According to patent publication US5945508A, “Substance P treatment for immunostimulation” (priority 1997, dated 1999):

Assays:
Spleen B Cell = test: Mitogenesis of spleen B cells, LP-BM5 mouse AIDS model; type: in vivo, C57BL6 mice
Protocol: (§1) C57BL6 mice, average weight of 25-30 grams, were infected with the LP-BM5 murine leukemia retrovirus to simulate the human AIDS virus. […] The mice were divided into two groups; LP-BM5 virus only and LP-BM5 virus+substance P aerosol therapy at 1 μM concentration. The mice were killed at 4 and 8 weeks postinoculation.
The proliferation of splenic B and T cells induced by mitogens was determined by incorporation of radioactive thymidine. Splenocytes in 0.1 ml of cell culture medium (1×10 ^7 cells/ml) were cultured in 96-well flat-bottom cultured plates with ConA and lipopolysaccharide, 5 micrograms/ml). The cells were incubated at 37° C., 5% CO2 incubator for 72 hours for ConA-induced T cell proliferation, and then pulsed with ^3 H-thymidine (1 microCurie/well). After 4 hours for radioactive thymidine uptake, the cells were harvested by a cell sample harvester. Radioactivity was determined by a liquid scintillation counter (Tri-Carb, 2200CA). The T and B cell mitogenesis values were recorded as counts per min in 1×10^7 cells/ml.

[1] = system: LP-BM5 murine leukemia retrovirus; test: Spleen changes and total cell numbers, LP-BM5 mouse AIDS model; type: in vivo, C57BL6 mice
Protocol: as §1

[2] = system: spleen, thymus and bone marrow cells; test: JP-8 jet fuel exposed mice, cell numbers (FIGS. 1-3); type: in vivo, C57BL6 mice; conditions: 1 micromolar aerosol 15 minutes after each exposure
Text: Since mice are nose-breathers, they were exposed to the aerosol/vapor mixture via nose-only presentation while they were held in individual loading tubes. The tubes were nose-fitted to receiving adaptors that originated from the common anodized aluminum exposure chamber (volume 0.3 m^3, IN-TOX, Albuquerque, N. Mex.). Noses were positioned in the exposure ports to minimize systemic absorption that might occur during total body exposure or through the process of self-grooming after exposure. The mice were rotated on a daily basis through the 24-adaptor positions of the exposure chamber. This was done to minimize proximity to the jet fuel source as a variable in exposure concentration or composition. Passive entrainment of the jet fuel aerosol/vapor mix and room air through the IN-TOX chamber was conducted by vacuum (15 liters/min). The vacuum was applied to the exposure chamber on the side opposite the fuel source. Animal exposure ports not in use were sealed during the exposure period. Longitudinal controls were sham-exposed in a manner identical to those receiving jet fuel, except that only room air was introduced into the exposure chamber. The exposure chamber was thoroughly cleaned prior to the longitudinal control group's exposure.
The substance P aerosol therapy was performed at the completion of the JP-8 jet fuel exposure. The nebulizer was modified with clean hoses and a new sonication crucible. […] The substance P aerosol therapy was conducted for the same seven day period over a total time period of nine days as the JP-8 jet fuel exposure regimen.

immune system = test: Immunotoxicology of exposure to jet fuel JP-8; type: in vivo, C57B16 mice; conditions: JP-8 exposed animals treated with Substance P
Protocol: (§2) At 24 hours after the last exposure, the animals were sacrificed and the effects of exposure on the immune system examined. Immune organs (spleen, thymus, blood, lymph nodes and bone marrow) were recovered and analyzed for effects on organ weight, total cell numbers, immune cell populations (by differentials), and lymphocyte subpopulations (by flow cytometry). Assays were also performed to examine the effects of exposure on immune function. […] Similar effects on immune cell subpopulations were also observed in lymph nodes. In the thymus it appeared that the immature CD4^+ CD8^+ cells were differentially lost due to exposure. […] However, these effects are prevented or ameliorated by treatment of the animals with Substance P.

[3] = system: murine melanoma B16 cancer cells; test: B16 melanoma lung tumor colonies after tail vein injection; type: in vivo, mice; conditions: for mean number of tumor colonies observed in both lungs: 1×10^4 B16 cells/mouse, 4 weeks post-injection; for reduction in tumors: versus controls
Text: The mice were infected with syngeneic murine melanoma B16 cancer cells by tail vein injection. The dose was 1×10^4 B16 tumor cells/mouse. […] The second group of mice was given their substance P aerosol therapy starting one week after the injection of the B16 cells. The aerosol therapy lasted for one week. Both groups of mice and their corresponding controls (injection with B16 cells and no substance P therapy) were killed at 4 weeks post-injection with B16 cells. The data is presented as the mean number of tumor colonies observed in both lungs.

immune system organs = test: Organ weight and total cell recovery; type: in vivo, C57B16 mice; parameters: Spleen Cell Number / Thymus Cell Number / LN Cell Number / BM Cell Number: scale not given here; Spleen Weight / Thymus Weight: unit not given here
Protocol: as §2
For each of the immune system organs (spleen, lymph nodes and thymus) the wet weight is determined after removal using a microbalance. After processing of the organs into single cell suspensions the cell numbers and viabilities are determined using trypan blue staining. Histochemical differentials are performed at this time. Cell numbers and viabilities are again determined after centrifugation of the cell suspensions through density gradients to obtain mononuclear cells.

[4] = JP-8 1000 mg/m^3 + SP, nSP (1 nM), CP or RP

For Substance P [SP], the “Spleen B Cell Mitogenesis” value (Spleen B Cell; 4 weeks after LP-BM5 infection, SP aerosol 1 μM 3 days/week, 25 Hours in Culture) was 2063 (448) counts per min, the “Spleen B Cell Mitogenesis” value (Spleen B Cell; 4 weeks after LP-BM5 infection, SP aerosol 1 μM 3 days/week, 48 Hours in Culture) was 1369 (231) counts per min and the “Spleen B Cell Mitogenesis” value (Spleen B Cell; 4 weeks after LP-BM5 infection, SP aerosol 1 μM 3 days/week, 72 Hours in Culture) was 1642 (158) counts per min. For the same substance, the “Spleen B Cell Mitogenesis” value (Spleen B Cell; 8 weeks post-infection with LP-BM5, SP aerosol 1 μM, 72 hours in culture) was 3227 (854) counts per min, the “total cell numbers (spleen) versus LP-BM5 group” value ([1]; 4 weeks after LP-BM5 infection, SP aerosol 1 μM) was “not accompanied by an increase in total cell numbers” and the “changes in the mouse spleens” value ([1]; LP-BM5 mouse model, substance P aerosol therapy) was “significant changes in the mouse spleens”. The “effect on spleen cell number (FIG. 1)” value ([2]; JP-8 500 or 2500 mg/m^3 7 days) was “totally reverse the effect of the jet fuel on the spleen cell number”, the “effect on bone marrow cells (FIG. 3)” value ([2]; JP-8 exposed mice) was “augments the stimulation substantially” and the “effect on thymus cell number (FIG. 2)” value ([2]; JP-8 exposed mice) was “substantially reverses the effect on cell number”. The “reversal of effects of JP-8 exposure on all measured parameters” value (immune system) was “invariably reversed the effects on all measured parameters of JP-8 exposure to almost normal levels”, the “mean number of tumor colonies observed in both lungs” value ([3]; 1 μM SP aerosol 15 min/day 7 days starting immediately (next day)) was 39 and the “mean number of tumor colonies observed in both lungs” value ([3]; SP aerosol for one week starting one week after injection) was 1. The reduction in tumors ([3]; therapy starting immediately after B16 cells injection) was 62.9%, the reduction in tumors ([3]; therapy starting one week after B16 cells injection) was 97.0% and the “BM Cell Number” value (immune system organs; JP-8 250 mg/m^3 + SP) was 23. For the same substance, the “LN Cell Number” value (immune system organs; JP-8 250 mg/m^3 + SP) was 10.8, the “Spleen Cell Number” value (immune system organs; JP-8 250 mg/m^3 + SP) was 40 and the “Spleen Weight” value (immune system organs; JP-8 250 mg/m^3 + SP) was 0.16. The “Thymus Cell Number” value (immune system organs; JP-8 250 mg/m^3 + SP) was 70, the “Thymus Weight” value (immune system organs; JP-8 250 mg/m^3 + SP) was 0.06 and the “BM Cell Number” value (immune system organs; [4]) was 21. For the same substance, the “LN Cell Number” value (immune system organs; [4]) was 5.0, the “Spleen Cell Number” value (immune system organs; [4]) was 72 and the “Spleen Weight” value (immune system organs; [4]) was 0.14. For the same substance, the “Thymus Cell Number” value (immune system organs; [4]) was 78, the “Thymus Weight” value (immune system organs; [4]) was 0.11 and the “BM Cell Number” value (immune system organs; JP-8 2500 mg/m^3 + SP) was 19. For the same substance, the “LN Cell Number” value (immune system organs; JP-8 2500 mg/m^3 + SP) was 5.0, the “Spleen Cell Number” value (immune system organs; JP-8 2500 mg/m^3 + SP) was 87 and the “Spleen Weight” value (immune system organs; JP-8 2500 mg/m^3 + SP) was 0.10. The “Thymus Cell Number” value (immune system organs; JP-8 2500 mg/m^3 + SP) was 96, the “Thymus Weight” value (immune system organs; JP-8 2500 mg/m^3 + SP) was 0.08 and the “reversal of effects of JP-8 exposure on the immune system” value (immune system organs; Substance P at both 1 uM and 1 nM doses) was “significantly reversed”. The “BM Cell Number” value (immune system organs; dose 0 (no JP-8) + SP or CP) was 9, the “Spleen Cell Number” value (immune system organs; dose 0 (no JP-8) + SP or CP) was 30 and the “Spleen Weight” value (immune system organs; dose 0 (no JP-8) + SP or CP) was 0.10. The “Thymus Cell Number” value (immune system organs; dose 0 (no JP-8) + SP or CP) was 18 and the “Thymus Weight” value (immune system organs; dose 0 (no JP-8) + SP or CP) was 0.04.
